According to patent publication US11896707B2, “Cosmetic preparations comprising Daphne extracts” (ETH Zurich, priority 2018, dated 2024):

Tests used:
[1] = Stability test by HPLC-UV-MS analysis; format: physicochemical; conditions: storage in DMSO for one week at 50° C.
[2] = tested on: BEC: blood endothelial cell; assay: Toxicity on BEC; format: cell-based; conditions: FIG. 8
Source text: (§1) Toxicity of the extracts according to example 2 was investigated. […] (LEC: lymphatic endothelial cell; HDFB: human dermal fibroblast; HaCaT: immortalized human keratinocyte; BEC: blood endothelial cell). The results are summarized in FIG. 8 and indicate its usefulness in cosmetic applications.

[3] = tested on: LEC: lymphatic endothelial cell; assay: Toxicity on LEC; format: cell-based; conditions: FIG. 8
Source text: as §1

[4] = tested on: HDFB: human dermal fibroblast; assay: Toxicity on HDFB; format: cell-based; conditions: FIG. 8
Source text: as §1

[5] = tested on: LEC: lymphatic endothelial cell; assay: LEC proliferation in vitro; format: cell-based
Protocol: Selectivity was examined using D. giraldii extracts. D. giraldii extract (CH3OH) promoted endothelial cell proliferation in vitro. […] At least 2 independent experiments with n=5 were performed for each cell type. LEC: lymphatic endothelial cell; HDFB: human dermal fibroblast; HaCaT: immortalized human keratinocyte; BEC: blood endothelial cell.
Daphnetoxin induced LEC proliferation most potently at 0.03 pM reaching 247±38% of control (0.1% DMSO).

[6] = tested on: lymphatic endothelial cell (LEC); assay: LEC sprouting assay (LEC-covered dextran beads, sprouts per bead); format: cell-based
Protocol: Stimulation of the lymphatic system: Lymph vessels fulfill an important role in order to maintain the microenvironment surrounding tissue in a constant state by removing unwanted substances present in skin as well as water and protein constantly escaping from blood vessels. […] This action was tested using in vitro test methods. In particular, using a model of sprouting assay developed previously (c.f. ADD Reference SCHULZ MM ET AL., PNAS 2012: PMID 22949700), a library of plant extracts was screened for extracts inducing lymphatic endothelial cell (LEC) sprouting. The key findings were further verified and analysed to characterize the active ingredients. The advantageous effects of the plant extracts were further confirmed by conducting relevant cell proliferation assays, in vitro migration assays and LEC tube formation assays. Given the positive results in all above mentioned assays, one can deduct the positive effect of the plant extracts and the active ingredient thereof, on improving lymphatic vascular function.
After a 24 hour incubation of fluorescently labeled LEC (lymphatic endothelial cell)-covered dextran beads with 10 pg/mL of extracts from a library of 1954 plant-derived samples, sprout formation was assessed by determining the ratio of sprouts per bead. 0.1% DMSO served as a vehicle control. Each extract was tested as 1-plicate and the entire library was screened in two independent replicates.
Sprout formation was assessed by determining the ratio of sprouts per bead. 0.1% DMSO and VEGF-A (20 ng/mL) served as negative and positive controls respectively.
0.1% DMSO served as a vehicle control and VEGF-A (20 ng/mL) as a positive control.

[7] = tested on: lymphatic endothelial cell (LEC); assay: Stability test: LEC sprouting activity after storage; format: cell-based; conditions: prolonged exposure at 4° C., 25° C. and 50° C. for one week
Source text: The D. giraldii extract and daphnetoxin were subjected to stability tests.

[8] = tested on: HaCaT: immortalized human keratinocyte; assay: Toxicity on HaCaT; format: cell-based; conditions: FIG. 8
Source text: as §1

C=C(C)[C@]12C[C@@H](C)[C@@]34OC(c5ccccc5)(O[C@@H]1[C@@H]3[C@@H]1O[C@]1(CO)[C@@H](O)[C@]1(O)C(=O)C(C)=C[C@H]14)O2 [Daphnetoxin]
stability by HPLC-UV-MS analysis [1]: confirms stability | cytotoxic effects on BEC [2]: did not evoke any cytotoxic effects | cytotoxic effects on LEC [3]: did not evoke any cytotoxic effects | cytotoxic effects on HDFB [4]: did not evoke any cytotoxic effects | concentration from which LEC proliferation is significantly induced ([5]; 6 replicates, FIG. 7B): ≥ 0.003 pM | LEC proliferation, specificity ([5]; Ex. 8, FIG. 8): promoted lymphatic endothelial cell proliferation specifically | LEC proliferation ([5]; at 0.03 pM (most potent concentration), FIG. 7B): 247±38 % of control (0.1% DMSO) | LEC sprouting, sprouts/bead ([6]; at 100 nM, FIG. 7A): 4.05 sprouts/bead | sprouting activity of HPLC fractions (HPLC-based activity profiling) ([6]; fraction from D. giraldii dichloromethane extract, FIG. 6): main active compound | concentration from which LEC sprouting is significantly induced ([6]; further experiment, 6 replicates, FIG. 7A): ≥ 10 nM | activity of LEC sprouting after storage [7]: consistent activity of LEC sprouting | cytotoxic effects on HaCaT [8]: did not evoke any cytotoxic effects
